In patent US11918548B2, “Treatment of avascular or hypovascular micro-tumors” (Katholieke Universiteit Leuven, priority 2017, dated 2024):
Values joined by “and” are separate entries in the source; they are usually repeats but may differ in a detail not shown here. Equal entries are not always repeated.

How the values were obtained:
cirrhotic liver = assay: Tolerability of the procedures and liver damage in cirrhotic rats after CA4P; type: in vivo, rat
Procedure: (§1) Tumor growth was monitored weekly by MRI from the 9th week after DENA administration until the largest tumor lesion attained more than 1 mm in diameter. All recruited tumor-carrying rats received single intravenous injection of CA4P at 10 mg/kg. T2WI, T1WI, DWI and CE-T1WI were performed 4 h before and 12 h after CA4P therapy. Rats were euthanized after the last time point of MRI for postmortem microangiography and histopathology.
(§2) After microangiography, the tumor sections were paraffin imbedded, sliced into 5 μm thickness and stained with hematoxylin and eosin (H&E) for microscopic analysis using an Axiovert 200M microscope equipped with an AxioCam MR monochrome digital camera (Carl Zeiss Inc, Gottingen, Germany) and by AxioVision 4.8 software.

[1] = tested on: primary hepatocellular carcinomas (HCCs); assay: CA4P-induced tumoral necrosis in DENA-induced primary HCCs on cirrhotic liver (histopathology, microangiography); type: in vivo, rat
Procedure: as §1
After the last MRI scanning, rats were anesthetized by an intraperitoneal injection of pentobarbital at 50 mg/kg. Then laparotomy was performed with blood collected via postcava and abdominal aorta cannulated, through which barium suspension was injected before the entire tumor-bearing liver was excised. With a digital mammography unit (Em-brace; Agfa-Gevaert, Mortsel, Belgium), postmortem hepatic arteriography was made at 26 kV, 32 mAs to document changes in tumor vascularity. The livers were then fixed and sliced into 3-mm sections in the axial plane corresponding to the MR images, and these sections were radiographed at 26 kV, 18 mAs for qualitative analysis.
as §2
Due to the high analogy to the histopathological progression observed in human liver cancer, rat primary HCCs were diagnosed according to the classical histomorphologic features: malignant hepatocytic tumors, often well vascularized, with wide trabeculae (>3 cell layers), noticeable acinar pattern, small cell changes, cytologic atypia, prominent nucleoli, mitotic activity, vascular invasion, absence of Kupffer cells and the loss of the reticulin network. The differentiation of rat HCCs was further classified into Grade I-IV using a modified 4-scale Edmondson and Steiner system [Schlageter et al. cited above].
Digital images of tumor slices at a magnification of 12.5 were used to estimate the percentage of tumor necrosis by ImageJ software [Buijs et al. (2011) J Vasc Intery Radiol 22, 1175-1180]. Briefly, regions of interest were delineated around the entire tumor and the necrotic tumor, respectively, to get ‘necrotic ratio on each section’. For each tumor section, the axial slide representing this tumor block was selected as ‘section area’. Tumor necrosis on each H&E stained slice was estimated independently by 2 pathologists, and calculated with the equation: Intratumoral necrosis ratio (%)=Σ[Necrotic ratio on each section (%)×section area (mm^2)]×section thickness (mm)/[4/3π r^3] (mm^3).
Statistical analyses were carried out by GraphPad Prism (version 7.02, GraphPad Software Inc, La Jolla, Calif., USA). The Pearson's correlation coefficient was calculated between percentile tumoral necrosis calculated by histopathology and tumor diameter measured from T2WI. Numerical data were presented as mean±standard errors of the mean (SEM). Comparison of percentile tumoral necrosis was performed by unpaired […] t-test; results of ADCs between tumor and liver background were compared by two-way ANOVA. A significant difference was concluded for P<0.05.

[2] = tested on: micro-HCCs and cirrhotic liver; assay: In vivo MRI (DWI-derived ADCperf/ADCdiff, T2WI, CE-T1WI) of micro-HCCs and surrounding cirrhotic liver after CA4P; design: species or system rat
Procedure: Images were acquired on a clinical 3.0T MRI scanner (MAGNETOM Prisma; Siemens, Erlangen, Germany) and a human wrist coil (Hand/Wrist 16, A 1.5 T Tim coil, Siemens). Twenty axial images were acquired, with a slice thickness of 2.0 mm and a gap of 0.4 mm. T2-weighted (repetition time, 4000 ms; echo time, 70 ms; flip angle, 150°; field of view, 75×56 mm^2; matrix, 256×192) and T1-weighted (repetition time, 626 ms; echo time, 15 ms; flip angle, 160°; field of view, 75×56 mm^2; matrix, 256×192) turbo spin echo (TSE) images (T2WI, T1WI) were performed weekly to monitor tumor growth, while T2WI, T1WI, diffusion-weighted imaging (DWI) and consecutive contrast-enhanced (CE-) T1WIs were acquired to evaluate CA4P treatment. For DWI, a 2-dimensional SE echo-planar imaging (EPI) sequence (repetition time, 3500 ms; echo time, 62 ms; flip angle, 90°; field of view, 136×74 mm2; matrix, 96×52) with 8 b values (0, 50, 100, 150, 400, 600, 800 and 1000 seconds/mm^2) was acquired. For CE-MRI, a bolus of 0.2 mmol/kg Gd-DOTA was injected before a series of CE-T1WIs were acquired.?
as §1
On DWI, tumor area was manually contoured with an operator-defined region of interest (ROI) on all tumor-containing images. ADC map was calculated from DWI to quantify therapeutic responses by the following mono-exponential formula: Si=S0×exp (−bi×ADC), in which Si is the signal intensity (SI) measured on the ith b value image, bi is the corresponding b value, and S0 is a variable estimating the intrinsic SI (for b=0 seconds/mm^2).
For the calculation of different ADC values, tumors were freehand delineated only on the central slices with the largest cross-sectional areas on the original DWIs at the b value of 1000 s/mm^2, in order to avoid partial volume effects. The delineation of each tumor lesion was copied to all images with different b values automatically. The average SI per tumor and per b value was then determined. The difference between ADClow (b=0, 50 and 100 s/mm^2) and ADChigh (b=600, 800 and 1000 s/mm^2) was defined as ADCperf to reflect the tissue microcapillary perfusion, while ADChigh was defined as ADCdiff [Chen et al. (2007) Methods. 43, 12-20].

rhabdomyosarcomas (R1) = assay: CA4P in rats with liver implantation of micro rhabdomyosarcomas (R1); type: in vivo, rat
Excerpt: To verify whether the above unexpected findings can be supported in other types of solid tumors, we intentionally studied CA4P in a group of rats with liver implantation of rhabdomyosarcomas (R1) ranging from 1 to 5 mm in diameter as monitored by noninvasive longitudinal MRI and verified by postmortem techniques. R1 has been extensively studied on VDA research before but in much larger tumor size.

macro- and micro-cancers = details: input of the model; cited from earlier work
[3] = tested on: subcutaneous rhabdomyosarcomas; details: large tumors (≥14 cm^3) versus small tumors (<1 cm^3); cited from earlier work
implanted tumor models = details: in vivo; cited from earlier work
[4] = tested on: rodent sarcoma, squamous cell carcinoma, fibrosarcoma, human renal cell carcinoma, Kaposi's sarcoma and breast carcinoma; details: intraperitoneal injection; cited from earlier work
[5] = micro-HCC, CA4P 10 mg/kg iv, 12 h
[6] = 12 h after CA4P 10 mg/kg iv versus baseline

COc1ccc(/C=C\c2cc(OC)c(OC)c(OC)c2)cc1OP(=O)(O)O [CA4P, combretastatin A-4 phosphate]
survival of rats (cirrhotic liver; DENA gavage, anesthesia, MRI with contrast and intravenous CA4P treatment, 19 rats): All rats survived
necrosis in cirrhotic liver parenchyma (cirrhotic liver; microscopy, 12 h after CA4P 10 mg/kg iv): necrotic foci scattered in the cirrhotic liver
tumoral necrosis, hypovascular Grade I-II well-differentiated micro-HCCs (Tumor 1-5) ([1]; histopathology, CA4P 10 mg/kg iv, 12 h): 82.77-96.45%
tumoral necrosis, Grade IV undifferentiated Tumor 7 (vascular lakes) [1, 5]: minimal necrosis
tumoral necrosis, hypervascular Grade III poorly differentiated Tumor 6 [1, 5]: 23.15%
rate of tumoral necrosis in hepatic microcancers higher than in larger HCCs ([1]; micro-HCCs ≤5 mm versus HCCs >5 mm, CA4P 10 mg/kg iv, 12 h): 36.9% and 36.93%
correlation of CA4P-induced tumoral necrosis with tumor diameter, micro-HCCs ([1]; tumors with diameters of ≤5 mm): not linearly correlated
ADCdiff in micro-HCC tumor ([2]; 12 h after CA4P 10 mg/kg iv): slightly rose
ADCdiff in surrounding cirrhotic liver ([2]; 12 h after CA4P 10 mg/kg iv): nearly unchanged
ADCperf (blood perfusion) in micro-HCC tumor [2, 6]: drop of tumor perfusion
ADCperf (blood perfusion) in surrounding cirrhotic liver [2, 6]: sharply decreased blood perfusion
duration of continuous liver ischemia ([2]; cirrhotic liver, CA4P 10 mg/kg iv): at least 12 h
tumoral necrosis on MRI, representative microcancer Tumor 1 ([2]; twelve hours after CA4P treatment, T2WI, ADC, CE-T1WI): massive tumoral necrosis
histology of representative micro R1 tumor (rhabdomyosarcomas (R1); 12 h after CA4P treatment, HE stained microscopy): massive and partial hemorrhagic tumor necrosis
necrosis in liver-implanted R1 lesions (rhabdomyosarcomas (R1); R1 of 1 to 5 mm in diameter, 10 out of 11 lesions): over 90%
tumour necrosis (α) known to be induced (macro- and micro-cancers): 50-99%
CA4P efficacy in large tumors relative to small tumors [3]: 16.6 fold
onset of tumor vascular disruption (implanted tumor models): less than 1 hour
time to extensive intratumoral necrosis (implanted tumor models): ≤ 12 h

COc1cc2c(c(OC)c1OC)-c1ccc(OP(=O)(O)O)cc1[C@@H](NC(C)=O)CC2 [ZD6126, N-acetylcochinol-O-phosphate]
necrosis in tumors larger than 1 g [4]: ~90%
necrosis in tumors of less than 0.3 g [4]: ~25%
